This experiment concerns ghost pepper ACS1. The experiment is described as follows: HPLC-based method to measure the activity of ghost pepper ACS1 against carboxylic acids. Format: biochemical, ghost chili pepper. Particulars: for ACS1 activity with 8-methyl-trans-6-nonenoic acid or 8-methylnonanoic acid as a substrate (FIG. 9): HPLC profiles of enzymatic products, 6E compared with 8M; for activities of ACS1 against various carboxylic acids (FIG. 8): 200 μM carboxylic acids as substrate, 30 min, acyl-CoA formation by HPLC at 257 nm, 100 mM Tri buffer, pH8.0 (FIG. 8 legend). How it is done:
C2, acetic acid; C4, butyric acid; C6, hexanoic acid, C8,caprylic acid; C10, capric acid; C12, lauric acid; C14, myristic acid; C16, palmitic acid; C18, stearic acid. The assay was performed in 100 mM Tri buffer, pH8.0.
Applicants used an HPLC-based method to measure the activity of ghost pepper ACS1 (Chen et al., 2011). Briefly, reaction mixtures (400 μL) contained 0.1 M Tris-HCl, […], 2 mM DTT, 5 mM ATP, 10 mM MgCl2, 0.5 mM CoA, 0.1% Triton and 200 μM carboxylic acids. The reaction was initiated by adding 20 μl of purified enzyme and stopped after 30 min by addition of 20 μl al acetic acid. HPLC was performed with Dionex-UltiMate® 3000 LC Systems (Thermo Scientific) using an Acclaim® 120 C18 reversed-phase column (Thermo Scientific; 3 μ, 120 Å, 150×3 mm). The mobile phase consisted of solvent A (0.1% trifluoroacetic acid) and solvent B (acetonitrile). The gradient elution procedure was as follows: 0 to 5 min, 5% of B; 5 to 9 min, a linear gradient from 5 to 80% of B; 9 to 11 min, 80% of B; 11 to 12 min, 5% of B. The flow rate was 0.6 ml/min. The diode array detector collected data in the 200- to 400-nm range. For detection and quantification of substrate and products, peak areas were measured at 257 nm.

SMILES strings stand for the structures.

Take `CC(C)/C=C/CCCCC(=O)O` [6E, 8-methyl-trans-6-nonenoic acid]: the “ACS1 activity with 8-methyl-trans-6-nonenoic acid or 8-methylnonanoic acid as a substrate (FIG. 9)” value is on record as “higher activity”.
For `CC(C)CCCCCCC(=O)O` [8M, 8-methylnonanoic acid], the “ACS1 activity with 8-methyl-trans-6-nonenoic acid or 8-methylnonanoic acid as a substrate (FIG. 9)” value is reported as “showed activities”.
For `CC(=O)O` [acetic acid], the “activities of ACS1 against various carboxylic acids (FIG. 8)” value (“activities of ACS1” for short) was “did not show any activity”.
With `CCCC(=O)O` [butyric acid], the “activities of ACS1” value was “did not show any activity”.
For `CCCCCCCCCC(=O)O` [capric acid], the “activities of ACS1” value is on record as “highest activity”.
